Results published in patent US9018208B2, “Heterocycles as potassium channel modulators” (Icagen Inc., priority 2007, dated 2015).

Test system: SH-SY5Y M-currents (KCNQ2, KCNQ3 and KCNQ5)
Experiment: SH-SY5Y native cell line FLIPR assay (voltage-sensitive dye DiBAC)
Assay type: cell-based, mouse neuroblastoma, rat glioma hybrid cell line
Conditions: FLIPR assay, SH-SY5Y native cell line; Table 1; read-out: SH-SY5Y EC50
In short: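 Response is peak DiBAC fluorescence change, normalised to the maximum from a positive control agent, sampled every 30 s over 25 min. Before compound addition, SH-SY5Y cells differentiated with PGE1 plus isomethylbutylxanthine were dye-loaded for 1 h in EBSS with […] DiBAC.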

Row | EC50 | SMILES
1 | 3000 to 10000 nM | O=C(Nc1nc2ccc(F)cn2c1I)C(F)(F)F [Compound 11, 2,2,2-trifluoro-N-(6-fluoro-3-iodoimidazo[1,2-a]pyridin-2-yl)acetamide]
2 | 500 to 3000 nM | CC(C)(C)CC(=O)Nc1nc2ccc(F)cn2c1C1CC1 [Compound 14, N-(3-cyclopropyl-6-fluoroimidazo[1,2-a]pyridin-2-yl)-3,3-dimethylbutanamide]
3 | < 500 nM | CC(C)(C)Cc1c(NC(=O)Cc2ccc(Oc3ccccc3)cc2)nc2ccc(C(F)(F)F)cn12 [Compound 22, N-(3-neopentyl-6-(trifluoromethyl)imidazo[1,2-a]pyridin-2-yl)-2-(4-phenoxyphenyl)acetamide]
4 | 500 to 3000 nM | CC(C)(C)CC(=O)Nc1nc2ccccn2c1CC(C)(C)C [Compound 88, 3,3-dimethyl-N-(3-neopentylimidazo[1,2-a]pyridin-2-yl)butanamide]
5 | < 500 nM | CC(C)(C)CC(=O)Nc1nc2ccc(F)cn2c1CC1CCCCC1 [Compound 66, N-(3-(cyclohexylmethyl)-6-fluoroimidazo[1,2-a]pyridin-2-yl)-3,3-dimethylbutanamide]
6 | < 500 nM | CC(C)CCc1c(NC(=O)CC2(C)CCCC2)nc2ccc(C(F)(F)F)cn12 [Compound 45, N-(3-isopentyl-6-(trifluoromethyl)imidazo[1,2-a]pyridin-2-yl)-2-(1-methylcyclopentyl)acetamide]

Same assay, conditions: FLIPR assay, SH-SY5Y native cell line; Table 2; read-out: SH-SY5Y EC50

Row | EC50 | SMILES
7 | < 500 nM | O=C(Cc1cc(F)cc(F)c1)Nc1nc2ccc(F)cn2c1-c1ccc(OC(F)(F)F)cc1 [Compound 242, 2-(3,5-difluorophenyl)-N-(6-fluoro-3-(4-(trifluoromethoxy)phenyl)imidazo[1,2-a]pyridin-2-yl)acetamide]
8 | 500 to 3000 nM | O=C(Cc1ccc(F)cc1)Nc1nc2ccc(F)cn2c1-c1ccc(F)cc1F [Compound 117, N-(3-(2,4-difluorophenyl)-6-fluoroimidazo[1,2-a]pyridin-2-yl)-2-(4-fluorophenyl)acetamide]
9 | < 500 nM | Cc1ccc2nc(NC(=O)Cc3ccc(F)cc3)c(-c3cccc(OC(F)(F)F)c3)n2n1 [Compound 306, 2-(4-fluorophenyl)-N-(6-methyl-3-(3-(trifluoromethoxy)phenyl)imidazo[1,2-b]pyridazin-2-yl)acetamide]
10 | < 500 nM | O=C(Cc1ccc(F)cc1)Nc1nc2ccc(C(F)(F)F)cn2c1-c1ccc(F)cc1 [Compound 121, 2-(4-fluorophenyl)-N-(3-(4-fluorophenyl)-6-(trifluoromethyl)imidazo[1,2-a]pyridin-2-yl)acetamide]
11 | 500 to 3000 nM | O=C(CCC(F)(F)F)Nc1nc2ccc(F)cn2c1-c1ccc(OC(F)(F)F)c(F)c1 [Compound 303, 4,4,4-trifluoro-N-(6-fluoro-3-(3-fluoro-4-(trifluoromethoxy)phenyl)imidazo[1,2-a]pyridin-2-yl)butanamide]
12 | < 500 nM | Cc1ccc2nc(NC(=O)Cc3ccc(F)cc3)c(-c3cccc(C(F)(F)F)c3)n2n1 [Compound 309, 2-(4-fluorophenyl)-N-(6-methyl-3-(3-(trifluoromethyl)phenyl)imidazo[1,2-b]pyridazin-2-yl)acetamide]
13 | < 500 nM | CC(C)(C)CC(=O)Nc1nc2ccc(F)cn2c1-c1cccc(Cl)c1 [Compound 149, N-(3-(3-chlorophenyl)-6-fluoroimidazo[1,2-a]pyridin-2-yl)-3,3-dimethylbutanamide]
14 | 3000 to 10000 nM | CC(C)(CO)CC(=O)Nc1nc2ccc(F)cn2c1-c1ccc(C(F)(F)F)cc1 [Compound 190, N-(6-fluoro-3-(4-(trifluoromethyl)phenyl)imidazo[1,2-a]pyridin-2-yl)-4-hydroxy-3,3-dimethylbutanamide]
15 | < 500 nM | O=C(Cc1cccc(Cl)c1)Nc1nc2ccc(F)cn2c1-c1ccc(OC(F)(F)F)c(F)c1 [Compound 298, 2-(3-chlorophenyl)-N-(6-fluoro-3-(3-fluoro-4-(trifluoromethoxy)phenyl)imidazo[1,2-a]pyridin-2-yl)acetamide]
16 | < 500 nM | O=C(Cc1ccc(Cl)cc1)Nc1nc2ccc(F)cn2c1-c1ccc(OC(F)(F)F)c(F)c1 [Compound 310, 2-(4-chlorophenyl)-N-(6-fluoro-3-(3-fluoro-4-(trifluoromethoxy)phenyl)imidazo[1,2-a]pyridin-2-yl)acetamide]

Continued, molecule first:

Row | SMILES | EC50
17 | COc1ccn2c(-c3ccc(C(F)(F)F)cc3)c(NC(=O)CC(C)(C)C)nc2c1 [Compound 245, N-(7-methoxy-3-(4-(trifluoromethyl)phenyl)imidazo[1,2-a]pyridin-2-yl)-3,3-dimethylbutanamide] | 500 to 3000 nM
18 | O=C(CC(F)(F)F)Nc1nc2cc(C(F)(F)F)ccn2c1-c1ccccc1 [Compound 104, 3,3,3-trifluoro-N-(3-phenyl-7-(trifluoromethyl)imidazo[1,2-a]pyridin-2-yl)propanamide] | 3000 to 10000 nM
19 | O=C(CC1CCCC1)Nc1nc2ccc(F)cn2c1-c1cccc(C(F)(F)F)c1 [Compound 268, 2-cyclopentyl-N-(6-fluoro-3-(3-(trifluoromethyl)phenyl)imidazo[1,2-a]pyridin-2-yl)acetamide] | < 500 nM
20 | Cc1ccc(-c2c(NC(=O)CC(C)(C)C)nc3ccc(F)cn23)cc1Cl [Compound 258, N-(3-(3-chloro-4-methylphenyl)-6-fluoroimidazo[1,2-a]pyridin-2-yl)-3,3-dimethylbutanamide] | < 500 nM
21 | O=C(CCC(F)(F)F)Nc1nc2ccc(F)cn2c1-c1cccc(OC(F)(F)F)c1 [Compound 275, 4,4,4-trifluoro-N-(6-fluoro-3-(3-(trifluoromethoxy)phenyl)imidazo[1,2-a]pyridin-2-yl)butanamide] | 500 to 3000 nM
22 | CC(CC(=O)Nc1nc2ccccn2c1-c1cccc(C(F)(F)F)c1)C(F)(F)F (centres unmarked) [Compound 337, 4,4,4-trifluoro-3-methyl-N-(3-(3-(trifluoromethyl)phenyl)imidazo[1,2-a]pyridin-2-yl)butanamide] | 500 to 3000 nM
23 | O=C(CC1CCCC1)Nc1nc2ccc(F)cn2c1-c1cccc(Cl)c1 [Compound 302, N-(3-(3-chlorophenyl)-6-fluoroimidazo[1,2-a]pyridin-2-yl)-2-cyclopentylacetamide] | < 500 nM
24 | CC1(CC(=O)Nc2nc3ccc(F)cn3c2-c2cccc(Cl)c2)CCCC1 [Compound 286, N-(3-(3-chlorophenyl)-6-fluoroimidazo[1,2-a]pyridin-2-yl)-2-(1-methylcyclopentyl)acetamide] | < 500 nM

Same assay, conditions: SH-SY5Y native cell line, FLIPR assay (Table 3); read-out: SH-SY5Y EC50

Row | EC50 | SMILES
25 | 3000 to 10000 nM | Cc1ccc2nc(NC(=O)CC(C)C(F)(F)F)c(-c3nc4ccccc4s3)n2n1 (centres unmarked) [Compound 386, N-(3-(benzo[d]thiazol-2-yl)-6-methylimidazo[1,2-b]pyridazin-2-yl)-4,4,4-trifluoro-3-methylbutanamide]
26 | 3000 to 10000 nM | CC(CC(=O)Nc1nc2ccc(F)cn2c1-c1nccs1)C(F)(F)F (centres unmarked) [Compound 383, 4,4,4-trifluoro-N-(6-fluoro-3-(thiazol-2-yl)imidazo[1,2-a]pyridin-2-yl)-3-methylbutanamide]
27 | 3000 to 10000 nM | O=C(Nc1nc2ccc(F)cn2c1-c1cc(C(F)(F)F)ccn1)C1CC1(F)F (centres unmarked) [Compound 412, 2,2-difluoro-N-(6-fluoro-3-(4-(trifluoromethyl)pyridin-2-yl)imidazo[1,2-a]pyridin-2-yl)cyclopropanecarboxamide]
28 | 3000 to 10000 nM | CC(C)(C)CC(=O)Nc1nc2ccc(F)cn2c1-c1cccnc1 [Compound 348, N-(6-fluoro-3-(pyridin-3-yl)imidazo[1,2-a]pyridin-2-yl)-3,3-dimethylbutanamide]

Same assay, conditions: read-out: SH-SY5Y_EC50

Row | EC50 | SMILES
29 | 2550 nM | CC(C)(C)CC(=O)Nc1nc2ccc(F)cn2c1C1CC1 [Compound 14, N-(3-cyclopropyl-6-fluoroimidazo[1,2-a]pyridin-2-yl)-3,3-dimethylbutanamide]
